Test results: patent US20060135435A1, “Agent that retards transformation of hormone-dependent cancer to non-hormone-dependent cancer” (priority 1998, published 2006)

**Q.** Which melting point does the source give for `C(=C\c1nc(COc2ccc(CCCn3cncn3)cc2)co1)/c1ccccc1` [Reference Example 3, 1-[3-[4-[2-[(E)-2-phenylethenyl]-4-oxazolylmethoxy]phenyl]propyl]-1,2,4-triazole] here?
**A.** 108 to 109 °C
